Data as given in patent US4540664A, “Method of saccharifying cellulose” (The United States of America as represented by the United …, priority 1983, dated 1985).

System: extracellular cellulase of Clostridium thermocellum ATTC 27405
Experiment: Saccharification of Avicel by desalted cellulase, followed by the decrease in turbidity at 660 nm
Type: biochemical
Settings: Avicel substrate
Description: In these experiments 50 μg of the protein that had been desalted by passage through the gel filtration resin was incubated with 3 mg of the substrate in 3 ml of substrate buffer. The buffer was 0.1M succinic acid/NaOH with a pH of 5.5. The suspension was diluted to 5 ml. No Ca^2+ was added. The cellulase activity was monitored by the decrease in turbidity of the suspension measured at 660 nm. By this method, the turbidity of the suspension decreases as more cellulose is saccharified, and less light is absorbed.
The reaction conditions were the same as for the samples used in FIG. 1 except that each sample included 5 mM DTT and either no additions, 10 mM EDTA, 7 mM CaCl2, or 7 mM MgCl2.

SMILES | effect of DTT on extent and duration of saccharification (2 mM DTT, no Ca2+ added, pH 5.5, compared with no reducing agent (FIG. 1)) | effect of DTT on rate of saccharification (5 mM DTT, no Ca2+ added, pH 5.5 (FIG. 1)) | effect of EDTA on saccharification (10 mM EDTA, 5 mM DTT, 0.1M succinic acid/NaOH pH 5.5 (FIG. 2))
O[C@H](CS)[C@H](O)CS (racemic) [DTT, dithiothreitol] | saccharification continues over 90 hours and is much more extensive | rate of saccharification is greater | –
O=C(O)CN(CCN(CC(=O)O)CC(=O)O)CC(=O)O [EDTA] | – | – | completely inhibits saccharification
